Earlier results in US20170326066A1, “METHOD OF TREATING HYPERTENSION” (Ezra Pharma LLC, priority 2016, published 2017).

peak plasma concentration reduced to (by 12 hours): approximately 65%
time by which plasma levels reach very low level (following Cmax): 10 to 12 h
half-life (in vivo): about 6 hours
Tmax (oral administration): 2 to 4 h
absolute bioavailability (oral administration): about 25%
absolute bioavailability (range) (oral administration): 10-35%
Structure (SMILES): CCCCC(=O)N(Cc1ccc(-c2ccccc2-c2nnn[nH]2)cc1)[C@H](C(=O)O)C(C)C [valsartan]
